According to patent US20020151581A1, “Glucose and lipid lowering compounds” (priority 1998, published 2002):
Where two headings read alike, the source gives them in different places.

How the values were obtained:
Assay type in all cases: biochemical
lipoprotein lipase = target: T1, lipoprotein lipase (Homo sapiens, UniProt P06858); assay: Inhibition of lipoprotein lipase, glycerol stabilized triolein substrate; conditions: test compound 100 μM
T1 sequence (P06858 28-475): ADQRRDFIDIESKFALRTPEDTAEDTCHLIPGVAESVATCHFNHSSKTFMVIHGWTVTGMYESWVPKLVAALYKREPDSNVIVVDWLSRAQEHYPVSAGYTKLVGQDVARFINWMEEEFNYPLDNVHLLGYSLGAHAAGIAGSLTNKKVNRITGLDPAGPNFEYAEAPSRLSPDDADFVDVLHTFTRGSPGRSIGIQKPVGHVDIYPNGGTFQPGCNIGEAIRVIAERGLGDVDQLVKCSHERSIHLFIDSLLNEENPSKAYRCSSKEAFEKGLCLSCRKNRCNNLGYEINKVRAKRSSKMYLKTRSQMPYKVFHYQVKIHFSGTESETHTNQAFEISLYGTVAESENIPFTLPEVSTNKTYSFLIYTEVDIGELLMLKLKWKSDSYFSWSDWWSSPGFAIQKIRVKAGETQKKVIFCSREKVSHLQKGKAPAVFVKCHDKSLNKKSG

[1] = target: T2, recombinant hormone-sensitive lipase (Homo sapiens, UniProt Q05469); assay: Inhibition of recombinant (purified) hormone-sensitive lipase on glycerol-stabilized triolein; conditions: test compound 100 μM, read-out: % inhibition Purified HSL
T2 construct: made in house
T2 sequence (Q05469 1-1076): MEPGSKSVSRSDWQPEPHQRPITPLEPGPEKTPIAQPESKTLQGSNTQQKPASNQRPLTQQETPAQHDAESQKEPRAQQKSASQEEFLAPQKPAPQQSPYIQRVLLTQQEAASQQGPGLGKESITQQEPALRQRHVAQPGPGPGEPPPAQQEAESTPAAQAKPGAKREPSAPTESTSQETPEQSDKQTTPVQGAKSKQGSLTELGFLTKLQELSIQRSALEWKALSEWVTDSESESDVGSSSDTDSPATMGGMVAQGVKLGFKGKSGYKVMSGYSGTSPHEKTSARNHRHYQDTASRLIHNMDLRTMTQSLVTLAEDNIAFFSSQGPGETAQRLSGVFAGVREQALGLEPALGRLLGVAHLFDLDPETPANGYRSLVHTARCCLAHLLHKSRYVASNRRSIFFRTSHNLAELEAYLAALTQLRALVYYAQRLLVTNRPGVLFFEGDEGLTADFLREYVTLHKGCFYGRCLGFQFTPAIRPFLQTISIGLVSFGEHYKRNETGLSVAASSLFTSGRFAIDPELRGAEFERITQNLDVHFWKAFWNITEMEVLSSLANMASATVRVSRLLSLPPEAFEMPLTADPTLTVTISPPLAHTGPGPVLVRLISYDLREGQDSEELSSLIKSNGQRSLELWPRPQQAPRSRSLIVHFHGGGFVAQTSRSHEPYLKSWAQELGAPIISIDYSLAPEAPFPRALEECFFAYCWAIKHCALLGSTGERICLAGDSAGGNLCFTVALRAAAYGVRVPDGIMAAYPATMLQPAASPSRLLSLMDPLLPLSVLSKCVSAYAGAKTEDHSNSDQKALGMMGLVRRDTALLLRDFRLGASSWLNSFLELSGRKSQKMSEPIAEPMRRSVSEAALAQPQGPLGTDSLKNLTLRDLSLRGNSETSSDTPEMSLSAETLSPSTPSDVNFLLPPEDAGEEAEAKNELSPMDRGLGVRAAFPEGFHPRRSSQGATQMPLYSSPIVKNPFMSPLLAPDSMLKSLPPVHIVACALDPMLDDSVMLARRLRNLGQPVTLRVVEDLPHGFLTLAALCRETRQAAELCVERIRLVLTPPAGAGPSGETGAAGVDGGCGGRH
Method: Recombinant hormone-sensitive lipase protein isolated from a bacterial expression vector was pre-incubated with a compound of the invention (e.g., 100 μM) prior to the addition of substrate, emulsified triolein phosphatidylcholine/phosphatidylinositol (PC/PI), to initiate the reaction. At various time points, aliquots of the reaction were taken, and the level of glycerol used as an index of enzyme activity. Pharmacological specificity is determined by incubating test compound with other mammalian and non-mammalian lipase enzyme systems to assess inhibition of activity. […]
In a similar manner to that described in Example 4 above, 2α-benzoyloxy-4,5,7,8,11αH-eudesman-8,12-olide at 100 μM was evaluated for ability to activity of recombinant hormone-sensitive lipase and hormone-sensitive lipase derived from a preparation of 3T3-cell lysate on glycerol-stabilized triolein.

hepatic lipase = target: T3, hepatic lipase (Homo sapiens, UniProt P11150); assay: Inhibition of hepatic lipase, glycerol stabilized triolein substrate; parameters: Pur. Hepatic Lipase + test compound (enzyme activity): unit not given beside the values; conditions: test compound 100 μM
T3 sequence (P11150 23-499): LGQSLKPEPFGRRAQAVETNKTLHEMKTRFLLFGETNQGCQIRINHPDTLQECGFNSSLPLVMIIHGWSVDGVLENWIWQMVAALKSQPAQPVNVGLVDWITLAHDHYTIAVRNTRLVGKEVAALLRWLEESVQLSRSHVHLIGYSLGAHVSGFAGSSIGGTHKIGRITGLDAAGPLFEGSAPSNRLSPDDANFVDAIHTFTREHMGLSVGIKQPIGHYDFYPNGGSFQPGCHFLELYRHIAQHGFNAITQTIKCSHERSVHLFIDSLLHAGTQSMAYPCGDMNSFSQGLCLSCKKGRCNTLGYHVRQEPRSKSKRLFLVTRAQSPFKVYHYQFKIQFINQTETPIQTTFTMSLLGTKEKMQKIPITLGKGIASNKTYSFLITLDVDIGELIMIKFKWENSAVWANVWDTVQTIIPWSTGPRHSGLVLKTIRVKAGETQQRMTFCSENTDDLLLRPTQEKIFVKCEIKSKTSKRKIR

CC1C[C@H](OC(=O)c2ccccc2)C[C@]2(C)C[C@H]3OC(=O)[C@@H](C)[C@H]3CC12 (stereo partly drawn) [2α-benzoyloxy-4,5,7,8,11αH-eudesman-8,12-olide]
inhibition of lipoprotein lipase (in words) (lipoprotein lipase): failed to significantly inhibit
Lipoprotein Lipase + test compound (enzyme activity) (lipoprotein lipase; triolein substrate 30 μM): 0.7
Lipoprotein Lipase + test compound (enzyme activity) (lipoprotein lipase; triolein substrate 67 μM): 1.8
Lipoprotein Lipase + test compound (enzyme activity) (lipoprotein lipase; triolein substrate 134 μM): 4.9
Lipoprotein Lipase + test compound (enzyme activity) (lipoprotein lipase; triolein substrate 264 μM): 10.3
Lipoprotein Lipase + test compound (enzyme activity) (lipoprotein lipase; triolein substrate 1000 μM): 67.4
inhibition at 100 µM ([1]; triolein 30 μM): 77%
inhibition at 100 µM ([1]; triolein 67 μM): 78%
inhibition at 100 µM ([1]; triolein 100 μM): 82%
inhibition at 100 µM ([1]; triolein 201 μM): 64%
inhibition at 100 µM ([1]; triolein 400 μM): 50%
inhibition at 100 µM ([1]; triolein 601 μM): 40%
inhibition at 100 µM ([1]; triolein 800 μM): 18%
inhibition at 100 µM ([1]; triolein 1000 μM): 27%
inhibition of hepatic lipase (in words) (hepatic lipase): failed to significantly inhibit
Pur. Hepatic Lipase + test compound (enzyme activity) (hepatic lipase; triolein substrate 30 μM): 0.08
Pur. Hepatic Lipase + test compound (enzyme activity) (hepatic lipase; triolein substrate 67 μM): 0.37
Pur. Hepatic Lipase + test compound (enzyme activity) (hepatic lipase; triolein substrate 100 μM): 0.69
Pur. Hepatic Lipase + test compound (enzyme activity) (hepatic lipase; triolein substrate 201 μM): 6.36
Pur. Hepatic Lipase + test compound (enzyme activity) (hepatic lipase; triolein substrate 400 μM): 30.80
Pur. Hepatic Lipase + test compound (enzyme activity) (hepatic lipase; triolein substrate 1000 μM): 151.60
